Values joined by “and” are separate entries in the source; they are usually repeats but may differ in a detail not shown here. Equal entries are not always repeated. Toxic doses and inconclusive results are not listed. No stated cut-off is given here; in the data, active means T/C of 150% or more; inactive means T/C below 125%.
Test system: L1210 leukemia ip in BDF1 mice, survival T/C
Test: NCI In Vivo Anticancer Drug Screen. Data for tumor model L1210 Leukemia (intraperitoneal) in B6D2F1 (BDF1) mice
Conditions: endpoint: mean survival time, vehicle: carboxymethylcellulose (CMC), higher = longer survival
Method in brief: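 Survival endpoint. Drug-treated group vs vehicle group, expressed as T divided by C. Tumor passaged by transplantation.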

Measured: T/C

CC(C)N(c1ccc(C(=O)O)cc1)C(C)C
inactive: dose: 100.0 mg/kg/injection, schedule: Q01DX009 (ip) 102 % of control and 109 % of control | dose: 100.0 mg/kg/injection, schedule: Q04DX002 (ip) 96 % of control and 98 % of control | dose: 100.0 mg/kg/injection, schedule: Q04DX003 (ip) 101 % of control | dose: 200.0 mg/kg/injection, schedule: Q01DX009 (ip) 102 % of control and 103 % of control | dose: 200.0 mg/kg/injection, schedule: Q04DX002 (ip) 95 % of control and 104 % of control | dose: 200.0 mg/kg/injection, schedule: Q04DX003 (ip) 98 % of control | dose: 400.0 mg/kg/injection, schedule: Q01DX009 (ip) 95 % of control and 97 % of control | dose: 400.0 mg/kg/injection, schedule: Q04DX002 (ip) 93 % of control and 86 % of control | dose: 400.0 mg/kg/injection, schedule: Q04DX003 (ip) 97 % of control
